Laboratory results reported in patent US20240261224A1, “FORMULATION OF A PAN-JAK INHIBITOR” (KINASET THERAPEUTICS, INC., priority 2022, published 2024).
Several values for one entry are separate records, joined by “and”; a condition that tells them apart may be missing. Identical values can stand only once. Like-named read-outs stand apart in the source and are kept apart here.

Columns and labels:
TYK2 = TYK2 (Homo sapiens, UniProt P29597); settings: cited from earlier work
JAK2 = JAK2 (Homo sapiens, UniProt O60674); settings: cited from earlier work
Chain of JAK2 (O60674 whole entry): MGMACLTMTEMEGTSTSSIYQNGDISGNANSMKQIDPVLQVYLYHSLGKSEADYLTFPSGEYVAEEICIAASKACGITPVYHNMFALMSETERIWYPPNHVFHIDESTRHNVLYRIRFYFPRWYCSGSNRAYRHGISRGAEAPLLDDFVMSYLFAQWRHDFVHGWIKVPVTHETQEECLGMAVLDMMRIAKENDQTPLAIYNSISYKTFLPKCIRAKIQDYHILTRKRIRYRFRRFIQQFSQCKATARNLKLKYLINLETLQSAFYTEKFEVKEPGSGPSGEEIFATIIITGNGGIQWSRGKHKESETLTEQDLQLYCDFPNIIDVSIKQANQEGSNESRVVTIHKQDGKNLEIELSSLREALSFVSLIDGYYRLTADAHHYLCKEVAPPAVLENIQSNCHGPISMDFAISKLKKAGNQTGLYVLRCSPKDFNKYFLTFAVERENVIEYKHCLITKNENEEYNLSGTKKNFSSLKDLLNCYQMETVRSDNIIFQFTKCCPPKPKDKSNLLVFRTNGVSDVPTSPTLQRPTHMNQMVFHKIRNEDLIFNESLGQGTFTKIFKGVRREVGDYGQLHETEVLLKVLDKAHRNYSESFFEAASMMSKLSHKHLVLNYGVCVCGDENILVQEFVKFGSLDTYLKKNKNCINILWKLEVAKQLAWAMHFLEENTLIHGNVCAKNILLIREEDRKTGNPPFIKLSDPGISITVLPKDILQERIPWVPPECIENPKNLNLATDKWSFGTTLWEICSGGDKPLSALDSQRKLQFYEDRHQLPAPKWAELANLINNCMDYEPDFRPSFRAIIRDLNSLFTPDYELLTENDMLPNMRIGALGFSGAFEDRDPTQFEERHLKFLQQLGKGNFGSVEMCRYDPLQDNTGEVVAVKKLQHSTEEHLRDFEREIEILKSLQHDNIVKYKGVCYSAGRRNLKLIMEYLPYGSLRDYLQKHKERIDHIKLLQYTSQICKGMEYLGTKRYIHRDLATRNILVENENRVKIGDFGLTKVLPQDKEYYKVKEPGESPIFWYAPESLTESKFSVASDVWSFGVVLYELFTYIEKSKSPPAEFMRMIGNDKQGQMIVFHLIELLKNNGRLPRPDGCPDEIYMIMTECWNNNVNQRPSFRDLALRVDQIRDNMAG

[1] = test system: induced sputum eosinophil count; assay: Phase 1 Part 3 induced sputum differential eosinophil count; assay type: in vivo, human; settings: 4 mg BID
From the text: Day 10 sputum and serum inflammatory biomarkers are shown below in Table 29. Part 3 included an evaluation of sputum samples obtained by sputum induction in accordance with European Respiratory Society guidelines (Paggiaro, et al., Eur. Respir. J. 2002, 20: Suppl. 37, 3 s). Subjects were randomized into sputum-producer and non-sputum producer strata with a target minimum of approximately 50% of subjects able to provide an adequate sputum sample at screening. […] Differential cell counts (DCC) were performed on samples judged adequate per standard procedure and patients with evaluable baseline (screening) and Day 10 (or Day 11 if Day 10 was not adequate) post-treatment samples were considered for analyses that included individual and mean absolute and percentage differential eosinophil counts.
In the sputum producer stratum, 6 Compound I (active) subjects and 2 placebo subjects were identified as having adequate baseline and post-treatment sputum samples and the resultant data was used to determine change from baseline, mean change from baseline, and mean placebo-corrected change from baseline (Compound I vs placebo). […] At baseline, all subjects manifested a percent differential eosinophil count >3%, indicative of active eosinophilic inflammation. By Day 10, 66% ( 4/6) of active subjects had improved below 3% eosinophils, with 50% ( 3/6) below a more stringent threshold of 1.9% (Reddel et al., Am. J. Respir. Crit. Care Med. 2009, 180, 59).

[2] = test system: fractional exhaled nitric oxide (FeNO); assay: Phase 1 Part 3: FeNO reduction in moderate to severe asthma on background ICS/LABA; assay type: in vivo, human; settings: for Mean Placebo-Corrected % Change from Day 1 Pre-Dose or from Patient's Baseline (FeNO): 4 mg BID (n = 5), Baseline FeNO >35 ppb and blood eosinophils >250 cells/μL; for % subjects achieving FeNO level <25 ppb on Day 10: 4.0 mg BID
Procedure: A status summary of the phase 1 clinical trial recruitment is shown below in Table 18. Capsules filled with blend 2a were used to achieve a 0.6 mg target dose of Compound I (0.2 mg capsules×3). Capsules filled with blend 4 were used to achieve 2.0 mg, 4.0 mg, 6.0 mg, 8.0 mg, and 12.0 mg target doses of Compound I (2.0 mg capsule×1; 4.0 mg capsule×1; 2.0 mg capsules×3; 4.0 mg capsules×2; and 4.0 mg capsules×3, respectively). Twice daily dosing (BID) was achieved by repeating the preceding regime. For example, an 8.0 mg BID dosing regime is achieved by administering two doses of 4.0 mg capsules×2.
Particular FeNO reduction data from FIG. 9 is highlighted below in Table 25. […] More specifically, subjects with Day 1 pre-dose FeNO levels between 33 and 280 ppb reported reductions greater than 20% by Day 10 and subjects with Day 1 pre-dose FeNO levels ranging from 33 to 118 ppb recorded levels less than 25 ppb by Day 10.
Part 3 involved the administration of a single dose regimen (4 mg BID), to subjects (17 active:6 placebo) with moderate to severe asthma treated with background ISC/LABA therapy, over a 10-day period. Blood samples were collected to enable the measurement of KN-002 concentrations in plasma. The resultant data was used to determine the pharmacokinetic parameters at Day 10 representing the Day on which the final dose was received.

[3] = Margin of safety study versus 13-wk rat NOAEL; assay type: in vivo
From the text: Results from the margin of safety study of lactose/MgSt-based formulations of Compound I are shown below in Table 17.

[4] = 13-week inhalation toxicology study, NHP model; assay type: in vivo; settings: in vivo, inhaled or intranasal, NHP; for AUC(0-t): monkey, read-out: AUC0-24
Procedure: (§1) Lactose/MgSt-based formulations of Compound I were evaluated during a 13-week inhalation toxicology study in an NHP model, and the corresponding results are presented in Table 16 below. […] The NOAEL was assigned to the highest dose study (7.9 mg/kg/day).

NHP = assay: 13-week inhalation toxicology study, NHP model; assay type: in vivo
Procedure: as §1

[5] = Day 10, Mean of active subjects (n = 6)
[6] = Day 10, active (n = 6) vs placebo (n = 2)
[7] = Day 10, individual active subjects 13026, 13027, 13038, 13073, 13095, 13097 (c1-c6)
[8] = Mean of active subjects (n = 6)
[9] = individual active subjects 13026, 13027, 13038, 13073, 13095, 13097 (c1-c6)
[10] = 4.0 mg BID vs 13-week rat study

Chain of TYK2 (P29597 whole entry): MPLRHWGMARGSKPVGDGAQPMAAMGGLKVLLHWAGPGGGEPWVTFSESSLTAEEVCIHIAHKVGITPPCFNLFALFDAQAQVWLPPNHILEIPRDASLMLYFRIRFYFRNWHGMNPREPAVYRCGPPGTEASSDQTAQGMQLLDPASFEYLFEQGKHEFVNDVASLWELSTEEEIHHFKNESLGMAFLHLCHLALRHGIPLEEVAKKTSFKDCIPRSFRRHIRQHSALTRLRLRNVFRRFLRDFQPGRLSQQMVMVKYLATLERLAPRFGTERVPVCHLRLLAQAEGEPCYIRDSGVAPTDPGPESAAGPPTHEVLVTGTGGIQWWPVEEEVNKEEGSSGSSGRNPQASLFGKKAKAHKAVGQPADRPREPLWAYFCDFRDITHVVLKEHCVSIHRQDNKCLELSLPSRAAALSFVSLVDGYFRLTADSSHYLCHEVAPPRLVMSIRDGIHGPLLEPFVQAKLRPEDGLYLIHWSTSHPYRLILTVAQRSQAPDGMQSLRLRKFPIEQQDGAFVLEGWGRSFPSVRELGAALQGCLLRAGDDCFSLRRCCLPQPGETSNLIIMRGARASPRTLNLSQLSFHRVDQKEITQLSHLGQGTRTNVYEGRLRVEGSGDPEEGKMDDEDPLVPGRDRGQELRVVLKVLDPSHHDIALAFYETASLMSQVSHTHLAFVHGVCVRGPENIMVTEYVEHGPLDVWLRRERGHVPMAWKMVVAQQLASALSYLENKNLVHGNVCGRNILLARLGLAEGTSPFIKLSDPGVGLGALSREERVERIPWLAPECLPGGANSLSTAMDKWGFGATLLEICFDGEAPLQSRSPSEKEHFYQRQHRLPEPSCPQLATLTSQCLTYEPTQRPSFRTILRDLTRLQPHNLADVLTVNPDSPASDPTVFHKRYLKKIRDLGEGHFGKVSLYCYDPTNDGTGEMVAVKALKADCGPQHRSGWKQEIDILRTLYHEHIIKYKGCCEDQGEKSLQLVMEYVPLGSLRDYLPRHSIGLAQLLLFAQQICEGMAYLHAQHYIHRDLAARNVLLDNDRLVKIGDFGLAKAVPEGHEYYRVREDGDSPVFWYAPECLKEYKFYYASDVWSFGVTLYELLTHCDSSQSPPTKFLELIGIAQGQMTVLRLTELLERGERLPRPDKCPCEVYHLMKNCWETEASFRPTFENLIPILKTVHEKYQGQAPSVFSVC

SMILES: Cn1c(=O)n([C@H]2CCCN(C(=O)CC#N)C2)c2nc(-c3cnn4ccccc34)ccc21 [Compound I, (S)-3-(3-(1-methyl-2-oxo-5-(pyrazolo[1,5-a]pyridine-3-yl)-1H-imidazo[4,5-b]pyridine-3(2H)-yl)piperidin-1-yl)-3-oxopropanenitrile]
- Inhibition of TYK2 (TYK2): potent inhibitor
- Inhibition of JAK2 (JAK2): potent inhibitor
- Induced sputum % differential eosinophil count, % Change from Screening [1, 5]: −65%
- Induced sputum % differential eosinophil count, Change from Screening [1, 5]: −6.8%
- Induced sputum absolute differential eosinophil count, % Change from Screening [1, 5]: −79%
- Induced sputum absolute differential eosinophil count, Change from Screening [1, 5]: −0.15 10^6/g
- Induced sputum % differential eosinophil count, Mean placebo-corrected change [1, 6]: −21.3%
- Induced sputum absolute differential eosinophil count, Mean placebo-corrected change [1, 6]: −0.22 10^6/g
- Induced sputum % differential eosinophil count, % Change from Screening [1, 7]: −54% and −48% and −81% and −64% and −75% and −94%
- Induced sputum % differential eosinophil count, Change from Screening [1, 7]: −8.3% and −2.3% and −4.3% and −18.8% and −3.0% and −4.5%
- Induced sputum % differential eosinophil count, Reduced to normal level (<3%) [1, 7]: No (2×) and Yes (4×)
- Induced sputum absolute differential eosinophil count, % Change from Screening [1, 7]: −70% and −75% (2×) and −89% and −88% and −100%
- Induced sputum absolute differential eosinophil count, Change from Screening [1, 7]: −0.16 10^6/g and −0.09 10^6/g and −0.08 10^6/g and −0.33 10^6/g and −0.07 10^6/g and −0.17 10^6/g
- Active subjects below more stringent threshold of 1.9% eosinophils (sputum) ([1]; by Day 10 (3/6)): 50%
- Active subjects improved below 3% eosinophils (sputum percent differential count) ([1]; by Day 10 (4/6)): 66%
- Induced sputum % differential eosinophil count, Day 10 level [1, 8]: 3.7%
- Induced sputum absolute differential eosinophil count, Day 10 level [1, 8]: 0.04 10^6/g
- Induced sputum % differential eosinophil count, Day 10 level [1, 9]: 7.0% and 2.5% and 1.0% (2×) and 10.5% and 0.3%
- Induced sputum absolute differential eosinophil count, Day 10 level [1, 9]: 0.07 10^6/g and 0.03 10^6/g and 0.01 10^6/g (2×) and 0.12 10^6/g and 0.001 10^6/g
- Mean Placebo-Corrected % Change from Day 1 Pre-Dose or from Patient's Baseline (FeNO) ([2]; Day 10 + 3 hrs): −37%
- Mean Placebo-Corrected % Change from Day 1 Pre-Dose or from Patient's Baseline (FeNO) ([2]; Day 10 + 6 hrs): −43%
- Mean Placebo-Corrected % Change from Day 1 Pre-Dose or from Patient's Baseline (FeNO) ([2]; Day 10 + 12 hrs): −47%
- Mean Placebo-Corrected % Change from Day 1 Pre-Dose or from Patient's Baseline (FeNO) ([2]; Day 10 mean): −43%
- Mean Placebo-Corrected % Change from Day 1 Pre-Dose or from Patient's Baseline (FeNO) ([2]; Day 10 pre-dose): −44%
- % subjects achieving FeNO level <25 ppb on Day 10 ([2]; ITT): 59%
- Mean placebo-corrected % FeNO reduction from Day 1 pre-dose ([2]; 4 mg BID, ITT (n = 17), Day 10 + 3 hours): −13.7%
- Mean placebo-corrected % FeNO reduction from Day 1 pre-dose ([2]; 4 mg BID, ITT (n = 17), Day 10 + 6 hours): −24.0%
- Mean placebo-corrected % FeNO reduction from Day 1 pre-dose ([2]; 4 mg BID, ITT (n = 17), Day 10 + 12 hours): −36.3%
- Mean placebo-corrected % FeNO reduction from Day 1 pre-dose ([2]; 4 mg BID, ITT (n = 17), Day 10 mean): −24.2%
- Mean placebo-corrected % FeNO reduction from Day 1 pre-dose ([2]; 4 mg BID, ITT (n = 17), Day 10 pre-dose): −22.9%
- % subjects achieving FeNO level <25 ppb on Day 10 ([2]; PP (excludes Day 1 pre-dose FeNO <30 ppb)): 52%
- Mean placebo-corrected % FeNO reduction from Day 1 pre-dose ([2]; 4 mg BID, PP (n = 15, excludes Day 1 pre-dose FeNO <30 ppb), Day 10 + 3 hours): −24.8%
- Mean placebo-corrected % FeNO reduction from Day 1 pre-dose ([2]; 4 mg BID, PP (n = 15, excludes Day 1 pre-dose FeNO <30 ppb), Day 10 + 6 hours): −33.3%
- Mean placebo-corrected % FeNO reduction from Day 1 pre-dose ([2]; 4 mg BID, PP (n = 15, excludes Day 1 pre-dose FeNO <30 ppb), Day 10 + 12 hours): −37.0%
- Mean placebo-corrected % FeNO reduction from Day 1 pre-dose ([2]; 4 mg BID, PP (n = 15, excludes Day 1 pre-dose FeNO <30 ppb), Day 10 mean): −31.9%
- Mean placebo-corrected % FeNO reduction from Day 1 pre-dose ([2]; 4 mg BID, PP (n = 15, excludes Day 1 pre-dose FeNO <30 ppb), Day 10 pre-dose): −32.7%
- FeNO reductions by Day 10 ([2]; 4 mg BID, subjects with Day 1 pre-dose FeNO levels between 33 and 280 ppb): greater than 20%
- FeNO levels by Day 10 ([2]; 4 mg BID, subjects with Day 1 pre-dose FeNO levels ranging from 33 to 118 ppb): less than 25 ppb
- Mean placebo-corrected change in FeNO from Day 1 pre-dose, blood eosinophil subgroup ([2]; Blood eosinophil cut-off ≥0.15 × 10^9/L (n = 16), Day 10 + 3 hours): −26
- Mean placebo-corrected change in FeNO from Day 1 pre-dose, blood eosinophil subgroup ([2]; Blood eosinophil cut-off ≥0.15 × 10^9/L (n = 16), Day 10 + 6 hours): −35
- Mean placebo-corrected change in FeNO from Day 1 pre-dose, blood eosinophil subgroup ([2]; Blood eosinophil cut-off ≥0.15 × 10^9/L (n = 16), Day 10 + 12 hours): −52
- Mean placebo-corrected change in FeNO from Day 1 pre-dose, blood eosinophil subgroup ([2]; Blood eosinophil cut-off ≥0.15 × 10^9/L (n = 16), Day 10 mean): −37
- Mean placebo-corrected change in FeNO from Day 1 pre-dose, blood eosinophil subgroup ([2]; Blood eosinophil cut-off ≥0.15 × 10^9/L (n = 16), Day 10 pre-dose): −34
- Mean placebo-corrected change in FeNO from Day 1 pre-dose, blood eosinophil subgroup ([2]; Blood eosinophil cut-off ≥0.3 × 10^9/L (n = 11), Day 10 + 3 hours): −44
- Mean placebo-corrected change in FeNO from Day 1 pre-dose, blood eosinophil subgroup ([2]; Blood eosinophil cut-off ≥0.3 × 10^9/L (n = 11), Day 10 + 6 hours): −54
- Mean placebo-corrected change in FeNO from Day 1 pre-dose, blood eosinophil subgroup ([2]; Blood eosinophil cut-off ≥0.3 × 10^9/L (n = 11), Day 10 + 12 hours): −75
- Mean placebo-corrected change in FeNO from Day 1 pre-dose, blood eosinophil subgroup ([2]; Blood eosinophil cut-off ≥0.3 × 10^9/L (n = 11), Day 10 mean): −57
- Mean placebo-corrected change in FeNO from Day 1 pre-dose, blood eosinophil subgroup ([2]; Blood eosinophil cut-off ≥0.3 × 10^9/L (n = 11), Day 10 pre-dose): −53
- MoS versus inhalation toxicology study NOAELs, Lung exposure (mg/g lung) [3, 10]: 3925
- MoS versus inhalation toxicology study NOAELs, Plasma (group mean AUC0-24) [3, 10]: 85.6
- Group mean AUC0-24 MoS (Phase 1 clinical study versus inhalation tox study NOAELs) ([3]; 4.0 mg BID vs 13-wk rat NOAEL): 5.6
- Lung dose of Compound I (mg/g) MoS ([3]; 4.0 mg BID vs 13-wk rat NOAEL, adjusted for respirability assuming 10%, 25% and 100% lung deposition in rat, NHP and human): 25
- AUC(0-t) ([4]; 0.9 mg/kg/day, inhaled 0.9 mg/kg/day, Day 1): 203 ng·h/mL
- AUC(0-t) ([4]; 0.9 mg/kg/day, inhaled 0.9 mg/kg/day, Week 13): 167 ng·h/mL
- AUC(0-t) ([4]; 2.7 mg/kg/day, inhaled 2.7 mg/kg/day, Day 1): 408 ng·h/mL
- AUC(0-t) ([4]; 2.7 mg/kg/day, inhaled 2.7 mg/kg/day, Week 13): 361 ng·h/mL
- AUC(0-t) ([4]; 8 mg/kg/day, inhaled 8.0 mg/kg/day, Day 1): 903 ng·h/mL
- AUC(0-t) ([4]; 8 mg/kg/day, inhaled 8.0 mg/kg/day, Week 13): 1160 ng·h/mL
- NOAEL at 13 weeks ([4]; non-human primate (NHP), 13-week inhalation, highest dose): 7.9 mg/kg/day
- Treatment-related effects on clinical signs, bodyweight, food consumption, ophthalmoscopy, blood chemistry, urinalysis or macroscopic pathology (NHP; NHP, 13-week inhalation): No treatment-related effects
- MMAD (NHP; target delivered dose 0.9 mg/kg/day (low dose)): 1.9 μm
- MMAD (NHP; target delivered dose 2.7 mg/kg/day (mid dose)): 2.3 μm
- MMAD (NHP; target delivered dose 8.0 mg/kg/day (high dose)): 2.7 μm
